The test system of test [1] is NCI-H1666 (BRAF G466V) cells. As to the kind of experiment: Proliferation assay (CellTiter-Glo) in NCI-H1666 cells. Type of test: cell-based. As to conditions: Homo sapiens, 3-5 day incubation. The method, then: The compounds of Example 13, Example 14 and Example 126 were evaluated in a proliferation assay in two mutant BRAF Class III cell lines: NCI-H1666 (BRAF^G466V) and WM3629 cells (BRAF^D594G/NRAS^G12D). NCI-H1666 cells were obtained from the American Type Culture Collection (ATCC, Rockville, MD) and WM3629 cells were obtained from Rockland Immunochemicals (Limerick, PA). Cells were maintained in RPMI growth medium containing 10% FBS.
Cells were harvested according to standard protocols, counted, and plated onto flat-bottom, 96-well tissue culture plates (Costar #3599) at 2000-5000 cells/well in 100 μL/well of growth medium containing 10% FBS. Cells were incubated at 37° C. with 5% CO2 overnight then treated with inhibitors prepared as a 9-point, 1:3.33 fold dilution series with final compound concentrations ranging from 66 pM-10 μM and a constant DMSO concentration of 0.25%. Control wells contained 0.25% DMSO alone. After a 3-5 day incubation at 37° C., 5% CO2, cell viability was determined by adding 100 μL CellTiter-Glo® Reagent (Promega) to each well and incubated for 15 minutes at room temperature. “Day 0” controls were determined by performing CellTiter-Glo© assay on DMSO control wells at the time of compound treatment (“Day 0” control=0 POC). Luminescence was measured on a Cytation 5 plate reader (BioTek) and values were converted to POC using the following equation:
[formula] • Where: • Xmax Average DMSO Controls • Xmin Average “Day 0” DMSO Controls • IC50 values were calculated using a 4-parameter fit in XLfit software and are shown in Table A2.
Background: In ATP-based viability assays light output follows the ATP content of the culture.

The next test concerns H1755 cells. As to the kind of experiment: Cellular phospho-ERK inhibition assay in H1755 cells. Particulars: Homo sapiens, NCI-H1755, 2 hours treatment, read-out: H1755 Cell IC50. Type of test: cell-based. In a few lines:
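In Cell Western detection of phospho-ERK1/2 (Thr202/Tyr204) over GAPDH after 2 h compound exposure (66 pM to 10 μM, 9 points, 0.25% DMSO) of A375 cells in DMEM or H1755 cells in RPMI, both with 10% FBS. Percent of control set by DMSO and 10 μM binimetinib; 4-parameter IC50.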

SMILES strings stand for the structures.

On to `Cn1cnc2ccc(Nc3c(F)ccc(NS(=O)(=O)N4CC5CC4C5)c3Cl)c(F)c2c1=O` [Example 13, N-(2-chloro-4-fluoro-3-((5-fluoro-3-methyl-4-oxo-3,4-dihydroquinazolin-6-yl)amino)phenyl)-2-azabicyclo[2.1.1]hexane-2-sulfonamide], for which the 50% inhibitory concentration (IC50) (usually the point on the concentration scale where inhibition reaches its midpoint) in test [1] worked out at 240 nM; in the test with H1755 cells it was 78 nM.

With `Cn1cnc2ccc(Nc3c(F)ccc(NS(=O)(=O)N4CC[C@@H](F)C4)c3Cl)c(F)c2c1=O` [Example 14, (R)-N-(2-chloro-4-fluoro-3-((5-fluoro-3-methyl-4-oxo-3,4-dihydroquinazolin-6-yl)amino)phenyl)-3-fluoropyrrolidine-1-sulfonamide], the figures for the IC50 (in test [1]; in the test with H1755 cells) were 120 nM and 21 nM, respectively.
